Values of other authors in US10894960B2, “Compositions and methods for nucleic acid transfer” (Children's Hospital Medical Center, priority 2016, dated 2021).

Target: TOP2 beta (Homo sapiens, UniProt Q02880)
Sequence (Q02880 whole entry): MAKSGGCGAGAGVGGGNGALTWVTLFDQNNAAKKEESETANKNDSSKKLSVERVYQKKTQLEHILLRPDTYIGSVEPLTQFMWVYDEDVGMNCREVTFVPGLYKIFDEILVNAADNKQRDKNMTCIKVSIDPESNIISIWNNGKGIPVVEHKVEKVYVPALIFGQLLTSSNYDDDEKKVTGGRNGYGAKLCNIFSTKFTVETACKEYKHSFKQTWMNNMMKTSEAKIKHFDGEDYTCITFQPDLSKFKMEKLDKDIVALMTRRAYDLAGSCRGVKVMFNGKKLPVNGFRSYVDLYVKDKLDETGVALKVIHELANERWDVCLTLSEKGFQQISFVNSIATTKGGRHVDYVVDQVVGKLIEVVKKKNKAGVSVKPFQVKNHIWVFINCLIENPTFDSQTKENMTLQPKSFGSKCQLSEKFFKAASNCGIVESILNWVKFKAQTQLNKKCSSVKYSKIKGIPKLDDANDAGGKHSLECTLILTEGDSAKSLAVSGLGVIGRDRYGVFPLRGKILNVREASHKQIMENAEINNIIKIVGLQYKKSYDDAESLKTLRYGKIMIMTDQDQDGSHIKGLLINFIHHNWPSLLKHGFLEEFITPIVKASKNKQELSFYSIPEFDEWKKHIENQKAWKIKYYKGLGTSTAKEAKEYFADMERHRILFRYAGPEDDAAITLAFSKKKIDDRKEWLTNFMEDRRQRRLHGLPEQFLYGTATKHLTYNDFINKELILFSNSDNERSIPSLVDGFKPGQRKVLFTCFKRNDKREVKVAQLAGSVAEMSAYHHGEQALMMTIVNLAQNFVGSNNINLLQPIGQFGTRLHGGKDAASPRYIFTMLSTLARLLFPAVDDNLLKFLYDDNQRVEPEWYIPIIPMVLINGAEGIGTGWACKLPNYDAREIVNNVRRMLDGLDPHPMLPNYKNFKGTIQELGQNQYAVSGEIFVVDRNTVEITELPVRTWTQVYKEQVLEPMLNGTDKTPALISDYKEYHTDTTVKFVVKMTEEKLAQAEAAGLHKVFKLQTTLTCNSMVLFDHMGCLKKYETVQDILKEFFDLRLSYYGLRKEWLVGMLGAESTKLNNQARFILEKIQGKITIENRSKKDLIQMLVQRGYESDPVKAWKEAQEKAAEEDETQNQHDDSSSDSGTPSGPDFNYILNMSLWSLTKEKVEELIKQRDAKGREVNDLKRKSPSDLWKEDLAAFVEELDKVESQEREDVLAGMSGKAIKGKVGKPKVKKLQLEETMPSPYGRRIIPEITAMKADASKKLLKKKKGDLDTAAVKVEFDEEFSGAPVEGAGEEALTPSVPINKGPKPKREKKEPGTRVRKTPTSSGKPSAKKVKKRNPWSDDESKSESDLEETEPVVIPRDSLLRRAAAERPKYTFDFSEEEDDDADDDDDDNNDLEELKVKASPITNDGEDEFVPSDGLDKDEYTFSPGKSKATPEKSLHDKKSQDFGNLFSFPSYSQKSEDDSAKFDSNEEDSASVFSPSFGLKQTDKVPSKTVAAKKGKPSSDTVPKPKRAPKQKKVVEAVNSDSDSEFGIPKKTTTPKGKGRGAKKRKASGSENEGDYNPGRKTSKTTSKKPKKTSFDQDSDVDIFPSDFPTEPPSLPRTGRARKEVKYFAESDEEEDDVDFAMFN
Conditions: Target TOP2 beta, gene symbol TOP2B
For `C[C@@H]1O[C@@H](O[C@H]2C[C@](O)(C(=O)CO)Cc3c(O)c4c(c(O)c32)C(=O)c2ccccc2C4=O)[C@H](I)[C@H](O)[C@H]1O` [Annamycin], the Effect is listed as “Inhibition”. For `CO[C@@H]1[C@@H](N)[C@@H](O[C@H]2[C@H](Oc3cccc4c(O)c5c(=O)oc6ccc(C)c7c(=O)oc(c34)c5c67)O[C@H](C)[C@H](O)[C@]2(C)O)O[C@H](C)[C@@H]1O` [Elsamitrucin], the Effect is given as “Inhibition”. In the case of `O=C(Nc1ccc2ncccc2c1)C(=O)c1cn(Cc2ccc(Cl)cc2)c2ccccc12` [Entasobulin], the Effect is listed as “Inhibition”. In the case of `COc1cc([C@@H]2c3cc4c(cc3[C@@H](O[C@@H]3O[C@@H]5CO[C@@H](C)O[C@H]5[C@H](O)[C@H]3O)[C@H]3COC(=O)[C@H]23)OCO4)cc(OC)c1O` [Etoposide], the Effect is given as “Inhibition”. In the case of `Cc1cnc(NCCCN(C)C)c2c1[nH]c1ccc3cc(O)ccc3c12` [Intoplicine], the Effect is listed as “Inhibition”. For `COc1ccc2c(c[n+](C)c3c4cc5c(cc4ccc23)OCO5)c1O` [NK109], the Effect is given as “Inhibition”. For `COc1cc([C@@H]2c3cc4c(cc3[C@@H](CCN(C)CCN(C)C)[C@H]3COC(=O)[C@H]23)OCO4)cc(OC)c1O` [TOP53], the Effect is given as “Inhibition”. In the case of `COc1cc([C@@H]2c3cc4c(cc3[C@@H](O[C@@H]3O[C@@H]5CO[C@@H](c6cccs6)O[C@H]5[C@H](O)[C@H]3O)[C@H]3COC(=O)[C@H]23)OCO4)cc(OC)c1O` [Teniposide], the Effect is given as “Inhibition”.

Target: NR3A (Homo sapiens, UniProt Q8TCU5)
Sequence (Q8TCU5 24-1115, species assumed, other chains not shown): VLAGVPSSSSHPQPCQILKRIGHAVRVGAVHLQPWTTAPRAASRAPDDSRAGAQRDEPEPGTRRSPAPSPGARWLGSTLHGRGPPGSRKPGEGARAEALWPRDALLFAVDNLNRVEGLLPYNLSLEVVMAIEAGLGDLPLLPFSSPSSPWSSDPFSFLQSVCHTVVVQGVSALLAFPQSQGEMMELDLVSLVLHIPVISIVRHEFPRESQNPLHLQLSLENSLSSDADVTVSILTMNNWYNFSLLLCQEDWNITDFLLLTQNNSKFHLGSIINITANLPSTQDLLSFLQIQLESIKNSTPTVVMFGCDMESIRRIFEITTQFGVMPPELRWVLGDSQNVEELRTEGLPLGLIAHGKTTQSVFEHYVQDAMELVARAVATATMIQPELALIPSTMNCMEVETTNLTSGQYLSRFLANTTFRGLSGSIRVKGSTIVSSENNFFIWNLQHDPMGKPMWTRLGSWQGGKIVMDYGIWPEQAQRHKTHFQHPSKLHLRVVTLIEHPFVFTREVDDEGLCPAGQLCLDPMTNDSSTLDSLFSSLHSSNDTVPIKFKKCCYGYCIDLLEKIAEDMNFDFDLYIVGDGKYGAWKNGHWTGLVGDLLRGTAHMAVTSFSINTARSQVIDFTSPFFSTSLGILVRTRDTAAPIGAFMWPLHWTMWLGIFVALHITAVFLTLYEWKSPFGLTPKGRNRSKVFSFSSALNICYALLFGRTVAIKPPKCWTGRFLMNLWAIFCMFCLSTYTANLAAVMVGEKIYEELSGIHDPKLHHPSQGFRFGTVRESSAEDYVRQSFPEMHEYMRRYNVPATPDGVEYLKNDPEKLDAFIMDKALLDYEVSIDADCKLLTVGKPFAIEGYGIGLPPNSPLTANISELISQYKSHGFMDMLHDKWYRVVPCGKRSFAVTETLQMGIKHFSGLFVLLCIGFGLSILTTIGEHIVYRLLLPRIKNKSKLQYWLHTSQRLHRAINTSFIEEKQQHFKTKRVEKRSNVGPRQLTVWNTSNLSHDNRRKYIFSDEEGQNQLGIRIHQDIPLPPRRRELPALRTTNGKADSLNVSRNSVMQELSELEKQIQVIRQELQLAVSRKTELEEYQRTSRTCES
Conditions: Target NR3A, gene symbol GRIN3A
For `CNC1(c2ccccc2Cl)CCCCC1=O` (stereo not shown) [Ketamine], the Effect is listed as “Inhibition”. For `CC12CC3CC(C)(C1)CC(N)(C3)C2` [Memantine], the Effect is given as “Inhibition”.

Target: PARP-1 (Homo sapiens, UniProt P09874)
Conditions: Target PARP-1, gene symbol PARP1
In the case of `O=[As]O[As]=O` (stereo not shown) [As(,2)O(,3)], the Effect is listed as “Inhibition”.

Target: SUR1 (Homo sapiens, UniProt Q09428)
Sequence (Q09428 whole entry, species assumed): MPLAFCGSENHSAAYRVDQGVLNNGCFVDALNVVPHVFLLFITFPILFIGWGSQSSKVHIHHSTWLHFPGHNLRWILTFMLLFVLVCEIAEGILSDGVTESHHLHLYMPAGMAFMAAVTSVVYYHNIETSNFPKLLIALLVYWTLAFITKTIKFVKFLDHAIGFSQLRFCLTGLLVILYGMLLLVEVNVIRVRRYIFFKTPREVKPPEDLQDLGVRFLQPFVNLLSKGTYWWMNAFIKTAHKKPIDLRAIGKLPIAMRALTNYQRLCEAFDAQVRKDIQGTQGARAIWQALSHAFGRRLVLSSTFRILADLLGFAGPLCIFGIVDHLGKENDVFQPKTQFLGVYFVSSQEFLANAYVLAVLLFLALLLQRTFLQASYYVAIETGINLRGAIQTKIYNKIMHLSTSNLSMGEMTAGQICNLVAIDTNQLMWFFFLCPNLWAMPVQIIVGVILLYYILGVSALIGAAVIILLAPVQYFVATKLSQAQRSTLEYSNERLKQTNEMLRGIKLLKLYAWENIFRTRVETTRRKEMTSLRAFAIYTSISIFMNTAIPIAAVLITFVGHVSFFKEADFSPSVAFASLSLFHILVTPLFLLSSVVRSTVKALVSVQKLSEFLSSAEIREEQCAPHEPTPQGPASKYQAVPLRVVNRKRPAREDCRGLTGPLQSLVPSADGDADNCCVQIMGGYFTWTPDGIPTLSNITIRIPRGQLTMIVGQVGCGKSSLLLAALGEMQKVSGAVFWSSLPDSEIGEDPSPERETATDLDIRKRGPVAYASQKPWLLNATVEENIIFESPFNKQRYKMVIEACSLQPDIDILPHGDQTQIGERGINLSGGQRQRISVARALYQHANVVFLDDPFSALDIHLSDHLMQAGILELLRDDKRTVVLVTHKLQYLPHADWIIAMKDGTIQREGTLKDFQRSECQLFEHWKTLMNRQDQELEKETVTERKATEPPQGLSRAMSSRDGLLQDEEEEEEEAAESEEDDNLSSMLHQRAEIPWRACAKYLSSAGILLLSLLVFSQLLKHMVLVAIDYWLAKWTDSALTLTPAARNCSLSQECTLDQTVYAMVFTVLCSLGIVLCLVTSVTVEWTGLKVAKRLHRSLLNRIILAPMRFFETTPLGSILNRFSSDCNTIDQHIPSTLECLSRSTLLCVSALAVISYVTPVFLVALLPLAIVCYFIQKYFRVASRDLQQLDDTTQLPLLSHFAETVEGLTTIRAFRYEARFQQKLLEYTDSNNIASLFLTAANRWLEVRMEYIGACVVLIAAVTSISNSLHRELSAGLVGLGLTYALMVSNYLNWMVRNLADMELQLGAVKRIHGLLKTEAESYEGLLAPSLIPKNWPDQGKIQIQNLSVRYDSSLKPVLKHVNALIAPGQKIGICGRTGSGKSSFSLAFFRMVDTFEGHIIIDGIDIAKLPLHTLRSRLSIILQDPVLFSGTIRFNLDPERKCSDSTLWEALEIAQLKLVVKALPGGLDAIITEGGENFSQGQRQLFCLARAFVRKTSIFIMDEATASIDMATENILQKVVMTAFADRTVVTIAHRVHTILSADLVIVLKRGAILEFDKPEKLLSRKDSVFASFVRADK
Sequence (Q14654 whole entry partner, species assumed): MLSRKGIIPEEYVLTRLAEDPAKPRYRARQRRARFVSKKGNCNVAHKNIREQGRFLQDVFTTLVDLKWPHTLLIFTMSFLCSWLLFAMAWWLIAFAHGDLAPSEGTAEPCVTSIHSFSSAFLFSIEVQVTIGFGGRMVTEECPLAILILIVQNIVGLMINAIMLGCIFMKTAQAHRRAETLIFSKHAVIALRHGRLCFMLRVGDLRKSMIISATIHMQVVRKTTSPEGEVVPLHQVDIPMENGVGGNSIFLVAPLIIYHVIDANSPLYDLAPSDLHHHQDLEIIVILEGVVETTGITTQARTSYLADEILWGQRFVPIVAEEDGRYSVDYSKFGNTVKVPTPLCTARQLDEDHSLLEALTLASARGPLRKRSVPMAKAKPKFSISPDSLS
Conditions: Target SUR1, gene symbol ABCC8
For `CCOc1cc(CC(=O)N[C@@H](CC(C)C)c2ccccc2N2CCCCC2)ccc1C(=O)O` (racemic) [(R/S)-Repaglinide], the Effect is given as “Inhibition”. For `CC(=O)c1ccc(S(=O)(=O)NC(=O)NC2CCCCC2)cc1` [Acetohexamide], the Effect is listed as “Activation”. In the case of `CC1=NS(=O)(=O)c2cc(Cl)ccc2N1` [Diazoxide], the Effect is listed as “Activation”. For `CCC1=C(C)CN(C(=O)NCCc2ccc(S(=O)(=O)NC(=O)N[C@H]3CC[C@H](C)CC3)cc2)C1=O` [Glimepiride], the Effect is given as “Inhibition”. In the case of `C1CCC2(C1)C1CN(CC3CC3)CC2CN(CC2CC2)C1` [Tedisamil], the Effect is given as “Inhibition”.
